Publication PMC9005681, “Use of AD Informer Set compounds to explore validity of novel targets in Alzheimer's disease pathology” (Alzheimer's & Dementia : Translational Research & Clinical …, 2022)

Key:
[1] = target: T1, cloned human or rodent CNS receptors, channels, and transporters (PDSP panel) (Homo sapiens, UniProt P08908); assay: PDSP GPCR panel primary binding assays at 10 μM; conditions: primary assay
T1 construct: expressed in transfected cells
T1 sequence (P08908 1-422): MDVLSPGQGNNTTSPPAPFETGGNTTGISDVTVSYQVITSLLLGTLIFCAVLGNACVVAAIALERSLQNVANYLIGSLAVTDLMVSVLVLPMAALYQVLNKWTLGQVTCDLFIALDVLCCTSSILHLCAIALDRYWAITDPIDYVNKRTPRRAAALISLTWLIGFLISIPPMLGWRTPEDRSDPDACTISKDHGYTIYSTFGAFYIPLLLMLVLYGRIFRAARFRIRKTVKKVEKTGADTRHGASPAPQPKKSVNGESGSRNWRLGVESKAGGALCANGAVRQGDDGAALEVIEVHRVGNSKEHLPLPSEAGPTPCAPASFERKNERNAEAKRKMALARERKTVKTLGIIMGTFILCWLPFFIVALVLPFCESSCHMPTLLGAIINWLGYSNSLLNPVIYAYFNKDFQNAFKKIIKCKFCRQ
In short: (§1)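 Radioligand displacement at cloned human or rodent CNS targets: 46–47 primary binding assays run in quadruplicate at 10 μM. Targets where the compound displaced an average of >50% of radiolabeled standard ligand went to secondary binding in 11-point dose-response, in triplicate; none run for H3, PBR or GABAA.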

[2] = target: T2, cloned human or rodent CNS receptors, channels, and transporters (PDSP panel) (Homo sapiens, UniProt P21917); assay: PDSP GPCR panel primary binding assays at 10 μM; conditions: primary assay
T2 construct: expressed in transfected cells
T2 sequence (P21917 1-419): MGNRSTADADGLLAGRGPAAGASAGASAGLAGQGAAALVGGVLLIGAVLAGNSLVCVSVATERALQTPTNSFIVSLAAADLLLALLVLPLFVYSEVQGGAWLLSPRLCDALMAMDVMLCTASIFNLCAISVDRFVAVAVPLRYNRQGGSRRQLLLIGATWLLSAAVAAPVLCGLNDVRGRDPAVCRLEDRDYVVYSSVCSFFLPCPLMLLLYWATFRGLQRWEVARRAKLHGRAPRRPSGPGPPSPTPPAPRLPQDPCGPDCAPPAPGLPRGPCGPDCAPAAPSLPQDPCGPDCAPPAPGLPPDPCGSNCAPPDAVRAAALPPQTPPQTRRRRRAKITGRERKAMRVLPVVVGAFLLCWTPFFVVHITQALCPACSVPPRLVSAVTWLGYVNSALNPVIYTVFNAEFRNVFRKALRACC
In short: as §1

[3] = target: T3, cloned human or rodent CNS receptors, channels, and transporters (PDSP panel) (Homo sapiens, UniProt P25021); assay: PDSP GPCR panel primary binding assays at 10 μM; conditions: primary assay
T3 construct: expressed in transfected cells
T3 sequence (P25021 whole entry): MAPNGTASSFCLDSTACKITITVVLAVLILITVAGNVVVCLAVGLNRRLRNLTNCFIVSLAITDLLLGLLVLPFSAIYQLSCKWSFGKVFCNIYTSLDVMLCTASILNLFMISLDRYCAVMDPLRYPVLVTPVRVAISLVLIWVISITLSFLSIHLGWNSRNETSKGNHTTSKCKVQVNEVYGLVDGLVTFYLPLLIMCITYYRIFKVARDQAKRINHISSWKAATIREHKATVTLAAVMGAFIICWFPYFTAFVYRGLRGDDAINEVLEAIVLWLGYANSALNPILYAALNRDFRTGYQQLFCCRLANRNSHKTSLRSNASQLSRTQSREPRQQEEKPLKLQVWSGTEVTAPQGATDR
In short: as §1

[4] = target: T4, cloned human or rodent CNS receptors, channels, and transporters (PDSP panel) (Homo sapiens, UniProt P28223); assay: PDSP GPCR panel primary binding assays at 10 μM; conditions: primary assay
T4 construct: expressed in transfected cells
T4 sequence (P28223 whole entry): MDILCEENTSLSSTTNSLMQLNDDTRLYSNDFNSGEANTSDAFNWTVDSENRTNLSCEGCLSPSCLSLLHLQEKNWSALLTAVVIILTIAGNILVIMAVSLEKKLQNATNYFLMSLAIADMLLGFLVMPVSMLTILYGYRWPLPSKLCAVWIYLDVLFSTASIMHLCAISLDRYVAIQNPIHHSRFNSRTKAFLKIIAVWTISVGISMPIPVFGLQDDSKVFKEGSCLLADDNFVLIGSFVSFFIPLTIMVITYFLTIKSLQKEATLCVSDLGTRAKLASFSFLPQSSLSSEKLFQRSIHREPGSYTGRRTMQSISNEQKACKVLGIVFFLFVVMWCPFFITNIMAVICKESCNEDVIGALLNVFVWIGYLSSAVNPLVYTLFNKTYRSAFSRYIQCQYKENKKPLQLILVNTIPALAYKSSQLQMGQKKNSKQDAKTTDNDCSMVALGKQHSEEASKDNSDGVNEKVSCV
In short: as §1

[5] = target: T5, cloned human or rodent CNS receptors, channels, and transporters (PDSP panel) (Rattus norvegicus, UniProt Q5U3Y7); assay: PDSP GPCR panel primary binding assays at 10 μM; conditions: Sigma 2, primary assay; for Inhibition 1: replicate 1; for Inhibition 2: replicate 2; for Inhibition 3: replicate 3; for Inhibition 4: replicate 4
T5 construct: expressed in transfected cells
T5 sequence (Q5U3Y7 1-176): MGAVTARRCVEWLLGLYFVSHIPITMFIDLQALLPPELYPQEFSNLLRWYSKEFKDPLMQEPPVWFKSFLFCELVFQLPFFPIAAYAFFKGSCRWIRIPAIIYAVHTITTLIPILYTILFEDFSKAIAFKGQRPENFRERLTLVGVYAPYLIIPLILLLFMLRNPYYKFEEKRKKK
In short: as §1

[6] = Plasma plus brain concentrations at 1 h after IV dose; format: in vivo; conditions: mouse, brain and plasma, CD1 mice, IV 10 mg/kg
Protocol: Compounds with acceptable PK were dosed IV at 10 mg/kg and plasma plus brain
concentrations measured at 1h in CD1 mice (3 mice per cohort, Table 2). […]

[7] = test system: HMC3 (human microglia) immortalized cell line; conditions: 10 μM, human immortalized microglial cells; cited from earlier work
[8] = test system: BV2 (mouse microglia) immortalized cell line; conditions: 10 μM, murine immortalized microglial cells; cited from earlier work
[9] = test system: BV2 (mouse microglia) immortalized cell line; conditions: 10 μM, murine immortalized microglial cells; cited from earlier work; remark: listed apart in the source
[10] = aqueous, neutral pH (7.4); cited from earlier work

## MDL 28170 [UNC10302675A]
[1]; 5-HT1A, mean inhibition
  Mean %: 2.42%
[1]; 5-HT1A, replicate 1
  Inhibition 1: 14.05%
[1]; 5-HT1A, replicate 2
  Inhibition 2: 0.78%
[1]; 5-HT1A, replicate 3
  Inhibition 3: -1.81%
[1]; 5-HT1A, replicate 4
  Inhibition 4: -3.36%
[2]; D4, mean inhibition
  Mean %: 0.31%
[2]; D4, replicate 1
  Inhibition 1: 10.14%
[2]; D4, replicate 2
  Inhibition 2: -3.06%
[2]; D4, replicate 3
  Inhibition 3: -7.08%
[2]; D4, replicate 4
  Inhibition 4: 1.24%
[3]; H2, mean inhibition
  Mean %: -17.24%
[3]; H2, replicate 1
  Inhibition 1: -6.35%
[3]; H2, replicate 2
  Inhibition 2: -24.37%
[3]; H2, replicate 3
  Inhibition 3: -15.47%
[3]; H2, replicate 4
  Inhibition 4: -22.78%
[4]; 5-HT2A, mean inhibition
  Mean %: -2.25%
[4]; 5-HT2A, replicate 1
  Inhibition 1: 10.17%
[4]; 5-HT2A, replicate 2
  Inhibition 2: -7.92%
[4]; 5-HT2A, replicate 3
  Inhibition 3: -7.75%
[4]; 5-HT2A, replicate 4
  Inhibition 4: -3.48%
[5]
  Inhibition 1: 37.24%
  Inhibition 2: 22.17%
  Inhibition 3: 24.38%
  Inhibition 4: 22.39%

## CCCCNc1ncc2c(-c3ccc(CN4CCN(C)CC4)cc3)cn([C@H]3CC[C@H](O)CC3)c2n1 [UNC2025C, UNC2025]
[1]; Receptor 5-HT1A, 10 μM
  Inhibition 1: 9.39%
  Inhibition 2: -18.53%
  Inhibition 3: 19.05%
  Inhibition 4: 31.46%
[1]; Receptor 5-HT1A, 10 μM, mean of Inhibition 1-4
  Mean %: 10.34%
[2]; Receptor D4, 10 μM
  Inhibition 1: 1.91%
  Inhibition 2: -16.35%
  Inhibition 3: 0.67%
  Inhibition 4: 12.24%
[2]; Receptor D4, 10 μM, mean of Inhibition 1-4
  Mean %: -0.38%
[3]; Receptor H2, 10 μM
  Inhibition 1: 36.84%
  Inhibition 2: 35.2%
  Inhibition 3: 22.04%
  Inhibition 4: 12.62%
[3]; Receptor H2, 10 μM, mean of Inhibition 1-4
  Mean %: 26.68%
[4]; Receptor 5-HT2A, 10 μM
  Inhibition 1: 90.4%
  Inhibition 2: 85.14%
  Inhibition 3: 80.37%
  Inhibition 4: 89.25%
[4]; Receptor 5-HT2A, 10 μM, mean of Inhibition 1-4
  Mean %: 86.29%
[6]
  Kp at 1 h: 1.96
[7]
  Inhibition of human microglial phagocytosis at 10 μM (<70% control): Y (The compound was found to inhibit phagocytosis (response threshold: <70% control) when human immortalized microglial cells were dosed at 10 μM (Y: yes))
[8]
  Inhibition of mouse microglial phagocytosis at 10 μM (<70% control): Y (The compound was found to inhibit phagocytosis (response threshold: <70% control) when murine immortalized microglial cells were dosed at 10 μM (Y: yes))
[9]
  Mouse microglial cytotoxicity at 10 μM (<70% control): Y (The compound was found to be cytotoxic (cell count threshold: <70% control) when murine immortalized microglial cells were dosed at 10 μM (Y: yes))
[10]
  Kinetic solubility: 43.4 µM

## O=C(NC1CC1)C(=O)C(Cc1ccccc1)NC(=O)[C@H]1CCC(=O)N1Cc1ccccc1 (stereo partly drawn) [UNC10302676A, ABT-957 (Alicapistat)]
[1]; 5-HT1A, mean inhibition
  Mean %: 3.84%
[1]; 5-HT1A, replicate 1
  Inhibition 1: 12.84%
[1]; 5-HT1A, replicate 2
  Inhibition 2: 2.5%
[1]; 5-HT1A, replicate 3
  Inhibition 3: 6.64%
[1]; 5-HT1A, replicate 4
  Inhibition 4: -6.64%
[2]; D4, mean inhibition
  Mean %: 0.58%
[2]; D4, replicate 1
  Inhibition 1: 5.07%
[2]; D4, replicate 2
  Inhibition 2: -11.66%
[2]; D4, replicate 3
  Inhibition 3: 8.7%
[2]; D4, replicate 4
  Inhibition 4: 0.19%
[3]; H2, mean inhibition
  Mean %: 2.47%
[3]; H2, replicate 1
  Inhibition 1: -6.09%
[3]; H2, replicate 2
  Inhibition 2: 2.81%
[3]; H2, replicate 3
  Inhibition 3: -1.92%
[3]; H2, replicate 4
  Inhibition 4: 15.07%
[4]; 5-HT2A, mean inhibition
  Mean %: 1.79%
[4]; 5-HT2A, replicate 1
  Inhibition 1: 6.22%
[4]; 5-HT2A, replicate 2
  Inhibition 2: 7.05%
[4]; 5-HT2A, replicate 3
  Inhibition 3: 5.57%
[4]; 5-HT2A, replicate 4
  Inhibition 4: -11.7%
[5]
  Inhibition 1: 16.59%
  Inhibition 2: 3.8%
  Inhibition 3: 13.22%
  Inhibition 4: -4.38%
[6]
  Kp at 1 h: 0.015
[10]
  Kinetic solubility: 176.5 µM
